Earlier results, collected in article PMC9947563, “Identification of the molecular determinants of antagonist potency in the allosteric binding pocket of human P2X4” (Frontiers in Pharmacology, 2023).
Read-outs that look alike come from different tables or passages of the source.

Legend:
hP2X4 = conditions: cited from earlier work
P2X1 = test system: P2X1; design: method as in Tian M. et al., 2020; conditions: ref Tian M. et al., 2020; cited from earlier work
P2X7 = test system: P2X7; design: method as in Tian M. et al., 2020; conditions: ref Tian M. et al., 2020; cited from earlier work

## O=C(Nc1cc(C(F)(F)F)cc(C(F)(F)F)c1)c1cccc(Cl)c1O [Tian-13]
hP2X4; ref Tian M. et al., 2020, read-out: P2X4 IC50
  IC50: 48.8 ± 11 nM
hP2X4; ref Tian et al. (2020), read-out: hP2X4 IC50
  IC50: 49 nM
P2X1
  IC50: 58 ± 21.9 nM
P2X7
  IC50: 177 ± 11 nM
